Earlier results as cited in patent publication US20040082013A1, “Methods for screening for substances which inhibit fp prostanoid receptor interaction with a compound having pgf2alpha activity and methods of treating cancer” (priority 2003, published 2004).

Tests used:
[1] = system: eyelashes and adjacent hair; conditions: some patients receiving latanoprost for glaucoma; treated eye, not untreated eye
[2] = system: skin carcinogenesis; conditions: animal models of skin carcinogenesis

Compound | hair growth side effect [1] | effect on anti-tumor promoting activity of indomethacin [2] | effect on tumor promoting activity of phorbol esters [2]
CC(C)OC(=O)CCC/C=C\C[C@@H]1[C@@H](CC[C@@H](O)CCc2ccccc2)[C@H](O)C[C@@H]1O [latanoprost] | hypertrichosis of the eyelashes and adjacent hair in the treated eye |  | 
prostaglandin F2α [PGF2α] |  | reversed the anti-tumor promoting activity of indomethacin | increased the tumor promoting activity of phorbol esters
